# From patent publication US20250011445A1 (priority 2020, published 2025)
# Read-outs that look alike come from different tables or passages of the source. *1 amine or outer side, *2 acyl side, *3 side chain or, on linkers, in order; H or OH if unused. Where a SMILES comes first, the peptide text is derived from it. Bridges are numbered along the chain shown (N, C = ends). Roman numbers before positions name the chains, in order. [ ]: non-standard residue; d: D form. The star is where a group is joined. Hexamethylenediamine = C(CCCN[*:2])CCN[*:1]; Dip = N[C@H](C(=O)O)C(c1ccccc1)c1ccccc1; Chg = N[C@H](C(=O)O)C1CCCCC1; NMeA = CN[C@@H](C)C(=O)O; Cbz = O=C(OCc1ccccc1)*; CH2F = FC*
# Experiments:
# [1] = test system: Primary human lung fibroblasts (MRC5 cells); assay: Death ligand-induced cell death in MRC5 cells, Sytox green, Incucyte; type: cell-based; conditions: for inhibition of TRAIL-induced cell death: MRC5 cells, FIG. 5
# [2] = test system: Human pancreatic ductal epithelial cells (HPDECs); assay: Death ligand-induced cell death in HPDECs, Sytox green, Incucyte; type: cell-based
# NIH3T3 cells = assay: Death ligand-induced cell death in NIH3T3 cells, Sytox green, Incucyte; type: cell-based, mouse; conditions: in presence of zVAD-fmk
# [3] = test system: Lung endothelial cells (LECs); type: cell-based, mouse; conditions: for sensitivity of cells to death ligand-induced cell death: 1 μg/ml Death Ligand, with zVAD
# MRC5 cells = assay: Western blot of cell lysates of IFN-treated MRC5 cells; type: cell-based, human; conditions: IFNs for 24 h
# Protocol: FIG. 6: MRC5 cells were treated with the indicated IFNs for 24 h before cells were lysed and cell lysates were analysed for presence of the indicated proteins by western blotting.
# reovirus 1/L (R1/L) = conditions: non-therapeutic inhibition; BOOP model and ARDS model; cited from earlier work
# Tnfr1KOHoil-1E-KO mice = assay: Cell death-driven lethal skin inflammation (dermatitis) model, Tnfr1KO Hoil-1E-KO mice; type: in vivo; conditions: treated once inflammation has been initiated (from 30 days onwards)
molecule,measurement,setting,value
"CN1C(=O)NC(Cc2c[nH]c3c(Cl)cccc23)C1=O (stereo not shown) [Nec-1s, reference compound]",inhibition of TRAIL-induced cell death,[1],could not be blocked
same,inhibition of cell death induced by TRAIL in combination with IFN-gamma,[2],"delayed the death of HPDECs induced by TRAIL in combination with IFN-gamma, it could not prevent it"
CN[C@@H](C)C(=O)N[C@H](C(=O)N1CCC[C@H]1C(=O)N[C@H](C(=O)NCCCCCCNC(=O)[C@@H](NC(=O)[C@@H]1CCCN1C(=O)[C@@H](NC(=O)[C@H](C)NC)C1CCCCC1)C(c1ccccc1)c1ccccc1)C(c1ccccc1)c1ccccc1)C1CCCCC1 [BV6] (I: H-[NMeA][Chg]P[Dip] / II: H-[NMeA][Chg]P[Dip]; linker I:C-II:C via Hexamethylenediamine),"toxicity in combination with TRAIL, IFN-gamma alone or IFN-gamma and TRAIL",[1],enhanced toxicity
same,sensitisation of cells by IAP antagonist alone,"[1]; BV6 alone, FIG. 9",did not sensitise these cells
IFN-gamma: type II IFN,sensitisation to death induction by TRAIL or FasL,"NIH3T3 cells; IFN pretreatment 24 hr, 1 μg/ml Death Ligand",significantly sensitised them to death induction by TRAIL or FasL
same,cell death induced by IFN alone,NIH3T3 cells; without death ligand,sufficient to significantly induce cell death
same,effect of IFN pre-treatment on sensitivity to death ligand-induced cell death,[3]; IFN overnight,sensitised these cells to FasL-mediated death
same,FN14 expression (western blot),MRC5 cells,upregulation of FN14
same,MLKL expression (western blot),MRC5 cells,strongly upregulated
same,effect of IFN pre-treatment on sensitivity to TRAIL-induced cell death,"[1]; IFN overnight, then TRAIL 1 μg/ml",did not increase their sensitivity to cell death induction by TRAIL
same,effect of IFN pre-treatment on sensitivity to TRAIL-induced cell death,"[2]; IFN overnight, then TRAIL 100 ng/ml",did not increase their sensitivity to cell death induction by TRAIL
same,effect of IFN pre-treatment on kinetics of TRAIL-induced cell death,[2]; compared to TRAIL alone,accelerated TRAIL-induced cell death
"COC(=O)C[C@H](NC(=O)[C@H](C)NC(=O)[C@@H](NC(=O)OCc1ccccc1)C(C)C)C(=O)CF [zVAD-fmk, reference compound] (Cbz-Val-Ala-Asp(OMe)-CH2F)",dependence of observed cell death on caspase inhibition,[3]; all death ligands,required inhibition of caspases by zVAD
same,"inhibition of cell death induced by the different combinations (BV6, TRAIL, IFN-gamma)",[1]; FIG. 9,completely inhibited
same,inhibition of TRAIL-induced cell death,[1],completely blocked
same,inhibition of cell death induced by TRAIL in combination with IFN-gamma,[2]; HPDECs,"delayed the death of HPDECs induced by TRAIL in combination with IFN-gamma, it could not prevent it"
CC[C@H](C)[C@H](NC(=O)OCc1ccccc1)C(=O)N[C@@H](CCC(=O)OC)C(=O)N[C@H](C(=O)N[C@@H](CC(=O)OC)C(=O)CF)[C@@H](C)O [zIETD-fmk] (Cbz-IE(OMe)TD(OMe)-CH2F),"aberrant cell death, inflammation and fibrosis in lung tissue",reovirus 1/L (R1/L),"reduces aberrant cell death, inflammation and fibrosis in lung tissue"
C[C@]12C=CC(=O)C=C1CC[C@H]1[C@@H]3C[C@@H](O)[C@](O)(C(=O)CO)[C@@]3(C)C[C@H](O)[C@@]12F [Triamcinolone],"ongoing skin inflammation / skin lesions, therapeutic treatment",Tnfr1KOHoil-1E-KO mice,insufficient to achieve a meaningful therapeutic effect
"TRAIL: Death Ligand, also known as Apo2L (protein, UniProt P50591 1-281, looked up) Tumor necrosis factor ligand …: MAMMEVQGGPSLGQTCVLIVIFTVLLQSLCVAVTYVYFTNELKQMQDKYSKSGIACFLKEDDSYWDPNDEESMNSPCWQVKWQLRQLVRKMILRTSEETISTVQEKQQNISPLVRERGPQRVAAHITGTRGRSNTLSSPNSKNEKALGRKINSWESSRSGHSFLSNLHLRNGELVIHEKGFYYIYSQTYFRFQEEIKENTKNDKQMVQYIYKYTSYPDPILLMKSARNSCWSKDAEYGLYSIYQGGIFELKENDRIFVSVTNEHLIDMDHEASFFGAFLVG",sensitivity of cells to death ligand-induced cell death,[3],highly sensitive to cell death induction
same,sensitivity of cells to death ligand-induced cell death,[1]; 1 μg/ml Death Ligand,exquisitely sensitive to TRAIL-induced apoptosis
same,sensitivity of cells to death ligand-induced cell death,[2]; 100 ng/ml Death Ligand,exquisitely sensitive to TRAIL-induced apoptosis
"FasL: Death Ligand, Fas ligand (protein, UniProt P48023 130-281, looked up) Tumor necrosis factor ligand …: QIGHPSPPPEKKELRKVAHLTGKSNSRSMPLEWEDTYGIVLLSGVKYKKGGLVINETGLYFVYSKVYFRGQSCNNLPLSHKVYMRNSKYPQDLVMMEGKMMSYCTTGQMWARSSYLGAVFNLTSADHLYVNVSELSLVNFEESQTFFGLYKL",sensitivity of cells to death ligand-induced cell death,[3],relatively insensitive
